These are literature values, as cited in patent publication US6369046B1, “Methods for treating dementia” (The Board of Trustees of the Leland Stanford Junior …, priority 1998, dated 2002).

Data set [1] concerns the target T1, glucocorticoid (GR) receptor (Homo sapiens, UniProt P04150).
T1 sequence (P04150 1-777): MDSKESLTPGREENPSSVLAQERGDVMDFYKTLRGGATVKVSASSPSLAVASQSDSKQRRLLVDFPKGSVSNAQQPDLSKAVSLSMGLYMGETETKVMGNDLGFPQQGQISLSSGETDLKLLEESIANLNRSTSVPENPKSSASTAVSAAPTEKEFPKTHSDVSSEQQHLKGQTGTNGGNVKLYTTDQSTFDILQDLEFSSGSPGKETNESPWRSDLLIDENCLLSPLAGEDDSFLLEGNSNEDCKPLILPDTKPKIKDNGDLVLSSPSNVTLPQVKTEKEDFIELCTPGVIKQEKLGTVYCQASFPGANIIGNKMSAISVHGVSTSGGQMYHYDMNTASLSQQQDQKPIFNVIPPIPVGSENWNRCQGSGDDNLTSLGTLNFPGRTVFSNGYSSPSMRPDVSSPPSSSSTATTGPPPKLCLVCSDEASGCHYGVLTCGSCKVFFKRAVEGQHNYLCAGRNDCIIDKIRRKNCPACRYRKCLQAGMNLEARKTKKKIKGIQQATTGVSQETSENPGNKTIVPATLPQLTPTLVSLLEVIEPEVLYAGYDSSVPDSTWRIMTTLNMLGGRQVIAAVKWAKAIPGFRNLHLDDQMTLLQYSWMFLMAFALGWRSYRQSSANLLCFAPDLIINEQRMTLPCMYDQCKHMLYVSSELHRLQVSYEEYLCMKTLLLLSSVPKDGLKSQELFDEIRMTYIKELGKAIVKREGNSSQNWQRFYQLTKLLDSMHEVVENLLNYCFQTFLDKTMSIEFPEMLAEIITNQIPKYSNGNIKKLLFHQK
Particulars: Bocquel (1993) for RU009; cited from earlier work.

The conditions of data set [2]: Kawai (1989) supra; cited from earlier work.
The target in the next data set is T2, progesterone receptor (Homo sapiens, UniProt P06401).
T2 sequence (P06401 1-933): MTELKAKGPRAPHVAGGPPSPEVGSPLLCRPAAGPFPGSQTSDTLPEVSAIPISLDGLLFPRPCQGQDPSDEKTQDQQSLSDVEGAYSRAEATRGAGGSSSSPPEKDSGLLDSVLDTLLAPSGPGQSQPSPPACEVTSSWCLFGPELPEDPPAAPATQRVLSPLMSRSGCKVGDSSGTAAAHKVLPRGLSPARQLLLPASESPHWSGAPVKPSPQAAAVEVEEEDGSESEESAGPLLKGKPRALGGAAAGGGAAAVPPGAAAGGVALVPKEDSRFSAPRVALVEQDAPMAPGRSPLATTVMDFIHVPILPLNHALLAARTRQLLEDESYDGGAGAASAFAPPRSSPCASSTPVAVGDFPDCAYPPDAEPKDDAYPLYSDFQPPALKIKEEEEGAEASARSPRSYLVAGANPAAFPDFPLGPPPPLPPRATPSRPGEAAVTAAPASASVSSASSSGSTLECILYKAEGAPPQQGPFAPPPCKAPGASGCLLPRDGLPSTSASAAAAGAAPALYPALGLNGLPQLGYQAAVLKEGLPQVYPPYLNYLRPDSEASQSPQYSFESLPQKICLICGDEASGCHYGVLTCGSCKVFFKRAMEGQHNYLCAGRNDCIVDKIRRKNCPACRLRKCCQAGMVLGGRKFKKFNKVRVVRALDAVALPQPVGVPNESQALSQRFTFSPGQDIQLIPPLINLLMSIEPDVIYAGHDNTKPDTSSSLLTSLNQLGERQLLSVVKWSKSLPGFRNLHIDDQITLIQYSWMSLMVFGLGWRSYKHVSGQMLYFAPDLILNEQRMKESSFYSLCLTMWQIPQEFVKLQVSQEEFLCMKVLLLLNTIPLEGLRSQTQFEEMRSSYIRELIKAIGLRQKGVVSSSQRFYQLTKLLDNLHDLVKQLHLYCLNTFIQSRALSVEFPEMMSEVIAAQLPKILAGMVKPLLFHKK
The following applies: cited from earlier work.

As for `CC#C[C@]1(O)CC[C@H]2[C@@H]3CCC4=CC(=O)CCC4=C3[C@@H](c3ccc(OCCN(C)C)cc3)C[C@@]21C` [RU009, 11-beta-(4-dimethyl-aminoethoxyphenyl)-1 7-alpha-(propynyl-17 beta-hydroxy-4,9-estradien-3-one)], the GR antagonism result in data set [1] was “GR antagonist effects”.
Take `CC#C[C@]1(O)CC[C@H]2[C@@H]3CCC4=CC(=O)CCC4=C3[C@@H](c3ccc(N(C)C)cc3)C[C@@]21C` [mifepristone, 17-beta-hydroxy-11-beta-(4-dimethyl-aminophenyl)-17-alpha-(1-propynyl)-estra-4,9-dien-3-one]: the “fraction of the daily dose excreted in the urine” value in data set [2] is “less than 0.5 % of the daily dose”. Further, the progesterone receptor antagonism result at progesterone receptor is reported as “powerful antagonist”. The GR antagonism result in data set [1] is “powerful antagonist”.
